Like-named read-outs stand apart in the source and are kept apart here.
Legend:
Format in all cases: cell-based, C57BL/6J mice
NLRP3 inflammasome = NLRP3 inflammasome activation in primary astrocytes, IL-1β and IL-18 release by ELISA; conditions: for IC50: Mus musculus, Astrocyte, primary astrocytes, microglial conditional media, LPS 1 μg/ml 4 h, IBC 1 h, ATP 5 mM 30 min, ELISA
Protocol: Primary astrocytes were first treated with microglia conditional media to induce astrogliosis ([Liddelow et al., 2017]). For this, the microglia (N9) cell line, provided by Dr. Anirban Basu (National Brain Research Centre, Gurgaon, India) was cultured in RPMI-1640. N9 cells (Passage 28-35) were seeded in 24 well plate at density 0.05 × 10^6 per well. The cells were treated with 1 μg/ml LPS, and supernatant was collected after 24 h. Seeded astrocytes were then treated with the LPS stimulated N9 cells supernatant for 24 h. Thereafter, the treatment for NLRP3 inflammasome activation was given, including priming with fresh 1 μg/ml LPS for 4 h, followed by washing and IBC or MCC950 (100 nM) treatment for 1 h in incomplete media (media without fetal bovine serum). ATP at 5 mM concentration was used as secondary signal for 30 min.
The experiment was terminated by collecting the cell supernatant.
After the termination of experiments, the supernatant was collected and analyzed for levels of cytokines. For measuring IL-1β and IL-18, supernatant collected after NLRP3 inflammasome activation as mentioned above, was subjected to ELISA. For detection of IL-1β in mice cortex, mice cortices were isolated and homogenized in RIPA buffer to measure IL-1β in homogenates. The manufacturer’s protocol was followed for measuring the cytokines. The levels of measured cytokines were normalized with the total protein content of the cells. For total protein content of cell pellet lysed with lysis buffer (0.2 N NaCl and 1% Triton-X 100) was measured.
IC50 of Isobavachalcone for IL-1β and IL-18 was calculated by using GraphPad Prism 8 software using non-linear regression analysis model. Log (inhibitor) vs. response curve was plotted.

[1] = test system: autophagy pathway proteins; experiment: Immunoblotting of autophagy pathway proteins in primary astrocytes
Protocol: Primary astrocytes were cultured from C57BL/6J (Jax:000664) mice pups with the approval of Institutional Animal Ethics Committee (IAEC) of CSIR-Indian Institute of Integrative Medicine (IIIM), Jammu, under IAEC number 287/80/2/2022 and 305/81/8/2022. The astrocytes were isolated from the brain of 3–4 days-old mice pups and were grown in 10% FBS-supplemented DMEM media. Briefly, pups were sacrificed through decapitation and sterilized with 70% ethanol. Brain was exposed and isolated. Olfactory lobes and cerebellum were removed with fine blade. The cortical region separated was collected in incomplete media (media without fetal bovine serum) and cut into small pieces. After that, these cortices were incubated at 37°C in 0.25% trypsin for 30 min, with gentle shaking after every 10 min. Trypsin activity was neutralized with complete media and cells were collected using a 70-micron cell strainer followed by centrifugation at 300 g for 5 min. The pellet was dissolved in fresh media and cells were grown in cell culture flasks and were maintained at 37°C in a CO2 incubator. Microglia and oligodendrocytes were separated from the underlying astrocyte layer after 6-7 days by shaking the flask for 6 h at 240 rpm. Cultures astrocytes within 2-4 passage were used for all the experiments.
Cellular lysates were prepared using radio immuno precipitation assay (RIPA) buffer for protein analysis. Briefly, the cell pellet was dissolved in RIPA buffer containing sodium fluoride, sodium orthovanadate, phenyl methyl sulfonyl fluoride (PMSF) and 1% protease inhibitor cocktail for 1 h with vertexing sample every 15 min. The supernatant was collected after high-speed centrifugation of samples for 20 min at 4°C. For analysis of proteins in mice hippocampi, the hippocampi isolated from mice brains was immediately washed with saline and stored in liquid nitrogen. For lysates preparation, tissue was homogenized in RIPA buffer substituted with sodium fluoride, sodium orthovanadate, phenyl methyl sulfonyl fluoride and 1% protease inhibitor cocktail. Total protein was measured using Bradford assay. Proteins were separated using SDS-PAGE and then transferred from gel to PVDF membrane. The protein of interest was labeled with a specific primary antibody overnight at 4°C. Further, the blot was incubated with corresponding HRP-conjugated secondary antibody for 1 h at room temperature. The band were visualized in the Genaxy Chemi Doc imaging system (Make: Syngene, Maryland, USA; Model: G: BOX, XT-4). Densitometry analysis of all the immunoblots was performed by using ImageJ software. Band density of proteins was normalized with β-actin. The phosphorylated proteins were normalized with their total forms.

LC3B and LAMP1 = LC3B and LAMP1 co-localization by confocal microscopy; conditions: primary astrocytes, 10 μM, 24 h
Protocol: Cells were seeded on coverslips in 6 well plates. After treatments, cells were fixed with 4% paraformaldehyde (PFA) for 15 min and permeabilized with 0.1% Triton-X 100 for 7 min. Blocking was done for 30 min with 2% BSA, followed by overnight incubation with primary antibody. Alexa fluor conjugated secondary antibody incubation was given to cells for 1 h for labeling. The nucleus was stained with 4,6-diamidino-2-phenylindole (DAPI) (1 μg/mL) for 10 min. Following staining, the coverslips were mounted on slides using mounting media (PBS and glycerol at a ratio of 1:9). Cells were washed thrice with PBS after each incubation. The images were acquired in a CQ1 high-throughput imaging system.

CC(C)=CCc1c(O)ccc(C(=O)/C=C/c2ccc(O)cc2)c1O [IBC, isobavachalcone]
IC50 (NLRP3 inflammasome; read-out: IC50 for IL-1β release): 2950 nM
IC50 (NLRP3 inflammasome; read-out: IC50 for IL-18 release): 2750 nM
inhibitory effect on release of IL-1β when autophagy is inhibited (NLRP3 inflammasome; pre-treatment with 20 nM bafilomycin A1 for 1 h, ELISA and western blotting): completely reversed
ATG5 level ([1]; 24 h): upregulated
ATG7 level ([1]; 24 h): upregulated
BECN1 expression ([1]; 24 h): did not show any change
FIP200 phosphorylation ([1]; 24 h): increased phosphorylation
MTOR level ([1]; 24 h): no change
ULK1 phosphorylation ([1]; 24 h): phosphorylated at Ser 317
pLKB1 (Ser 428) level ([1]; 24 h): no change
AMPK phosphorylation (Thr 172) ([1]; 24 h, 5, 10 and 20 μM): concentration-dependent increase
BCL2 level ([1]; 24 h, 5, 10 and 20 μM): marked decline
LC3B-II level ([1]; 24 h, 5, 10 and 20 μM): significant increase
pCAMKK2 (Ser 511) level ([1]; 24 h, 5, 10 and 20 μM): significantly upregulated
SQSTM1 level ([1]; 24 h, 10 and 20 μM): reducing levels
co-localization of LC3B and LAMP1 (LC3B and LAMP1): proximity of LC3B and LAMP1

— publication PMC11965660, “Isobavachalcone ameliorates Alzheimer disease pathology by autophagy-mediated clearance of amyloid beta and inhibition of NLRP3 inflammasome in primary astrocytes and 5x-FAD mice” (Frontiers in Pharmacology, 2025)
